Data reported in the SangsterLogP compilation.

Row | SMILES | logP
1 | CSc1n[nH]c(C2CCCCC2C(=O)NCCc2ccccc2)n1 (stereo unspecified) | 3.51
2 | CSc1n[nH]c(C2CCCCC2C(=O)NCc2ccccc2)n1 (stereo unspecified) | 3.17
3 | COc1ccc(NC(=O)C2C3C=CC(C3)C2c2nc(SC)n[nH]2)cc1 (stereo unspecified) | 2.86
4 | CSc1n[nH]c(C2C3C=CC(C3)C2C(=O)NCc2ccccc2)n1 (stereo unspecified) | 2.8
5 | CCCCNC(=O)C1CCCCC1c1nc(SC)n[nH]1 (stereo unspecified) | 2.97
6 | CSc1n[nH]c(C2CCCCC2C(=O)NC2CCCCC2)n1 (stereo unspecified) | 3.48
7 | CSc1n[nH]c(C2C3C=CC(C3)C2C(=O)NCCc2ccccc2)n1 (stereo unspecified) | 3.12
8 | CCCCNC(=O)C1C2C=CC(C2)C1c1nc(SC)n[nH]1 (stereo unspecified) | 2.55
9 | CCCNC(=O)C1C2C=CC(C2)C1c1nc(SC)n[nH]1 (stereo unspecified) | 2.13
10 | CCCNC(=O)C1CCCCC1c1nc(SC)n[nH]1 (stereo unspecified) | 2.55
11 | COc1ccc(NC(=O)C2CCCCC2c2nc(SC)n[nH]2)cc1 (stereo unspecified) | 3.19
12 | CSc1n[nH]c(C2C3C=CC(C3)C2C(=O)NC2CCCCC2)n1 (stereo unspecified) | 3.03
13 | CSc1n[nH]c(C2C3C=CC(C3)C2C(=O)Nc2ccc(Br)cc2)n1 (stereo unspecified) | 3.67
14 | CCC(C)NC(=O)C1CCCCC1c1nc(SC)n[nH]1 (stereo unspecified) | 2.97
15 | CSc1n[nH]c(C2CCCCC2C(=O)Nc2ccccc2)n1 (stereo unspecified) | 3.3
16 | CSc1n[nH]c(C2C3C=CC(C3)C2C(=O)Nc2ccccc2Cl)n1 (stereo unspecified) | 3.44
17 | CSc1n[nH]c(C2C3C=CC(C3)C2C(=O)Nc2ccccc2)n1 (stereo unspecified) | 2.91
18 | CSc1n[nH]c(C2C3C=CC(C3)C2C(=O)Nc2cccc(C)c2)n1 (stereo unspecified) | 3.29
19 | CSc1n[nH]c(C2CCCCC2C(=O)Nc2ccc(Br)cc2)n1 (stereo unspecified) | 4.02
20 | CCC(C)NC(=O)C1C2C=CC(C2)C1c1nc(SC)n[nH]1 (stereo unspecified) | 2.57
21 | CSc1n[nH]c(C2CCCCC2C(=O)Nc2ccccc2Cl)n1 (stereo unspecified) | 3.84
